Laboratory results: ChEMBL document CHEMBL1152915, “The inhibitory mechanism of a novel cationic glucosamine derivative against MMP-2 and MMP-9 expressions” (Bioorg Med Chem Lett, 2009)
Each block holds one compound with its values, some of them ahead of it. Calls of active or inactive are those of the source. No cut-off for these calls is given here.

Legend:
[1] = molecular target: 72 kDa type IV collagenase (Homo sapiens) (UniProt P08253); assay: Inhibition of MMP2 gelatinolytic activity in phorbol myristate acetate-stimulated human HT1080 cells at 60 ug/ml by gelatin zymography relative to control; type: cell-based; conditions: HT-1080
Chain of 72 kDa type IV collagenase (Homo sapiens) (P08253 110-660 limits assumed): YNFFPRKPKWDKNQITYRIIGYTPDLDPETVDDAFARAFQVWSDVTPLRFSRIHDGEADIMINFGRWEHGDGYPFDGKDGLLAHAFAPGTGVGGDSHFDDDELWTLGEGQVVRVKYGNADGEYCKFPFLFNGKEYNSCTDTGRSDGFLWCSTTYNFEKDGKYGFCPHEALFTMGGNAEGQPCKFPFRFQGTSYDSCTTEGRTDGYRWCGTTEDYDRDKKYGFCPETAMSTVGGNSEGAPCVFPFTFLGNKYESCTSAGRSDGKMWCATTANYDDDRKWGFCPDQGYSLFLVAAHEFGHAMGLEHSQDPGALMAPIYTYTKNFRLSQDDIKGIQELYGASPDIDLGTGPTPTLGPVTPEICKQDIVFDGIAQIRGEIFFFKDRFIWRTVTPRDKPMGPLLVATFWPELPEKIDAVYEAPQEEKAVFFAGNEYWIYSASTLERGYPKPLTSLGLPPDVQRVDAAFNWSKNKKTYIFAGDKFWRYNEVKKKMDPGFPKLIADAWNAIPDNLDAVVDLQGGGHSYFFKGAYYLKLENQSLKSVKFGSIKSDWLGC

[2] = tested on: HT-1080; assay: Antiinvasive activity in human HT1080 cells at 60 ug/ml after 48 hrs; type: functional, cell-based
[3] = molecular target: Matrix metalloproteinase-9 (Homo sapiens) (UniProt P14780); assay: Inhibition of MMP9 gelatinolytic activity in phorbol myristate acetate-stimulated human HT1080 cells at 60 ug/ml by gelatin zymography relative to control; type: cell-based; conditions: HT-1080
Chain of Matrix metalloproteinase-9 (Homo sapiens) (P14780 whole entry): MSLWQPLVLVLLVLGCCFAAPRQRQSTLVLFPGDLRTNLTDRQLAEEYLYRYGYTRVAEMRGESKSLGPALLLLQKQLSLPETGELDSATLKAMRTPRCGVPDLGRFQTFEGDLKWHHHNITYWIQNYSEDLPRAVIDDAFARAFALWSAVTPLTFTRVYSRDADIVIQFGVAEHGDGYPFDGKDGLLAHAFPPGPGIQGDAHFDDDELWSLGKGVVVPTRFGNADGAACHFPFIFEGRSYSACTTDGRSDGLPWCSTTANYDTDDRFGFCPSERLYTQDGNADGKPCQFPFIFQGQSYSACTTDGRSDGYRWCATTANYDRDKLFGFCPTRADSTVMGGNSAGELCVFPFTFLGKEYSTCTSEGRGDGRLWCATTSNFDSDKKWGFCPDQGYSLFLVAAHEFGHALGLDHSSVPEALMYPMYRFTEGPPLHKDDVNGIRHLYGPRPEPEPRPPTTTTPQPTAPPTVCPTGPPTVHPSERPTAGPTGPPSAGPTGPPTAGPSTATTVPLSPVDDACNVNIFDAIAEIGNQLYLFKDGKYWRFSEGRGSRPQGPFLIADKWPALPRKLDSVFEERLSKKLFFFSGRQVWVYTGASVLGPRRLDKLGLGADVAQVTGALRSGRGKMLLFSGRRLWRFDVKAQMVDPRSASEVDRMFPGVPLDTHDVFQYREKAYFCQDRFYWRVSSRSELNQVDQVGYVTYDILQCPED

[4] = molecular target: Matrix metalloproteinase-9 (Homo sapiens) (UniProt P14780); assay: Inhibition of MMP9 gelatinolytic activity in human HT1080 cells at upto 60 ug/ml by gelatin zymography relative to control; type: cell-based; conditions: HT-1080
[5] = molecular target: 72 kDa type IV collagenase (Homo sapiens) (UniProt P08253); assay: Inhibition of MMP2 gelatinolytic activity in human HT1080 cells at upto 60 ug/ml by gelatin zymography relative to control; type: cell-based; conditions: HT-1080
[6] = molecular target: 72 kDa type IV collagenase (Homo sapiens) (UniProt P08253); assay: Reduction of gelatinolytic activity of MMP2 in phorbol myristate acetate-stimulated human HT1080 cells at 40 and 60 ug/ml; type: cell-based; conditions: HT-1080
[7] = tested on: HT-1080; assay: Inhibition of JNK expression in phorbol myristate acetate-stimulated human HT1080 cells at 60 ug/ml by Western blotting relative to control; type: functional, cell-based
[8] = molecular target: 72 kDa type IV collagenase (Homo sapiens) (UniProt P08253); assay: Inhibition of MMP2 gene promoter activity in phorbol myristate acetate-stimulated human HT1080 cells by luciferase reporter gene assay; type: cell-based; conditions: HT-1080
[9] = tested on: HT-1080; assay: Inhibition of ERK expression in phorbol myristate acetate-stimulated human HT1080 cells at 60 ug/ml by Western blotting relative to control; type: functional; parameters: scale not given: the % may be the effect or the level left
[10] = tested on: HT-1080; assay: Suppression of MMP9 expression in phorbol myristate acetate-stimulated human HT1080 cells by Western blotting relative to control; type: functional, cell-based
[11] = tested on: HT-1080; assay: Antiinvasive activity in human HT1080 cells at 20 ug/ml after 48 hrs; type: functional
[12] = tested on: HT-1080; assay: Suppression of NF-kappaB p65 subunit expression in phorbol myristate acetate-stimulated human HT1080 cell cytoplasm by Western blotting relative to control; type: functional, cell-based
[13] = tested on: HT-1080; assay: Suppression of TIMP1 expression in phorbol myristate acetate-stimulated human HT1080 cells by Western blotting relative to control; type: functional, cell-based
[14] = tested on: HT-1080; assay: Suppression of AP1 c-FOS subunit expression in phorbol myristate acetate-stimulated human HT1080 cell cytoplasm by Western blotting relative to control; type: functional, cell-based
[15] = molecular target: Transcription factor Jun (Homo sapiens) (UniProt P05412); assay: Inhibition of AP1 gene promoter activity in phorbol myristate acetate-stimulated human HT1080 cells at 60 ug/ml by luciferase reporter gene assay; type: cell-based; conditions: HT-1080
Chain of Transcription factor Jun (Homo sapiens) (P05412 whole entry): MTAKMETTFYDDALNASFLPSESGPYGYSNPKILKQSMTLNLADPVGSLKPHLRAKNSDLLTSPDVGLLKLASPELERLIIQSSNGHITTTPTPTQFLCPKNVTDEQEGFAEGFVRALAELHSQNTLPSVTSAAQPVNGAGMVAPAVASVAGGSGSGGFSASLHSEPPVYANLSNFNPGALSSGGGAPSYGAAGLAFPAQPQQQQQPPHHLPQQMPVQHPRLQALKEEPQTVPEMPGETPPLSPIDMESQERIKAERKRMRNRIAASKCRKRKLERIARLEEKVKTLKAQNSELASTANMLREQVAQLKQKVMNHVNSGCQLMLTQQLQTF

[16] = tested on: HT-1080; assay: Inhibition of p38 expression in phorbol myristate acetate-stimulated human HT1080 cells at 60 ug/ml by Western blotting relative to control; type: functional, cell-based
[17] = tested on: HT-1080; assay: Suppression of TIMP2 expression in phorbol myristate acetate-stimulated human HT1080 cells by Western blotting relative to control; type: functional, cell-based
[18] = tested on: HT-1080; assay: Inhibition of cell migration in human HT1080 cells at 60 ug/ml; type: functional
[19] = molecular target: 72 kDa type IV collagenase (Homo sapiens) (UniProt P08253); assay: Inhibition of MMP2 in phorbol myristate acetate-stimulated human HT1080 cells by gelatin zymography relative to control; type: cell-based; conditions: HT-1080
[20] = tested on: HT-1080; assay: Suppression of MMP2 expression in phorbol myristate acetate-stimulated human HT1080 cells by Western blotting relative to control; type: functional, cell-based
[21] = tested on: HT-1080; assay: Suppression of NF-kappaB p65 subunit expression in phorbol myristate acetate-stimulated human HT1080 cell nucleus by Western blotting relative to control; type: functional, cell-based
[22] = tested on: HT-1080; assay: Cytotoxicity against human HT1080 cells assessed as cell viability at upto 60 ug/ml; type: cell-based
[23] = molecular target: Matrix metalloproteinase-9 (Homo sapiens) (UniProt P14780); assay: Inhibition of MMP9 gene promoter activity in phorbol myristate acetate-stimulated human HT1080 cells at 60 ug/ml by luciferase reporter gene assay relative to control; type: cell-based; conditions: HT-1080
[24] = tested on: HT-1080; assay: Suppression of AP1 c-FOS subunit expression in phorbol myristate acetate-stimulated human HT1080 cell nucleus by Western blotting relative to control; type: functional, cell-based
[25] = tested on: HT-1080; assay: Inhibition of NF-kappaB gene promoter activity in phorbol myristate acetate-stimulated human HT1080 cells at 60 ug/ml by luciferase reporter gene assay; type: cell-based
[26] = molecular target: 72 kDa type IV collagenase (Homo sapiens) (UniProt P08253); assay: Inhibition of MMP2 gene promoter activity in phorbol myristate acetate-stimulated human HT1080 cells at 60 ug/ml by luciferase reporter gene assay relative to control; type: cell-based; conditions: HT-1080
[27] = molecular target: Matrix metalloproteinase-9 (Homo sapiens) (UniProt P14780); assay: Inhibition of MMP9 in phorbol myristate acetate-stimulated human HT1080 cells by gelatin zymography relative to control; type: cell-based; conditions: HT-1080
[28] = molecular target: Matrix metalloproteinase-9 (Homo sapiens) (UniProt P14780); assay: Inhibition of MMP9 gene promoter activity in phorbol myristate acetate-stimulated human HT1080 cells by luciferase reporter gene assay; type: cell-based; conditions: HT-1080
[29] = molecular target: Matrix metalloproteinase-9 (Homo sapiens) (UniProt P14780); assay: Reduction of gelatinolytic activity of MMP9 in phorbol myristate acetate-stimulated human HT1080 cells at 40 and 60 ug/ml; type: cell-based; conditions: HT-1080

inhibition [1]: inactive | inhibition [3]: inactive
SMILES: N[C@H]1C(O)O[C@H](CO)[C@@H](O)[C@@H]1O (stereo partly drawn)
Activity [2]: inactive

inhibition [4]: inactive | inhibition [5]: inactive
SMILES: C[C@H]1c2cccc(O)c2C(=O)C2=C(O)[C@]3(O)C(=O)C(C(N)=O)=C(O)[C@@H](N(C)C)[C@@H]3[C@@H](O)[C@@H]21

inhibition [4]: inactive | Activity [6]: Active | inhibition [8]: Dose-dependent effect | inhibition [1]: 62% | inhibition [15]: 60% | inhibition [19]: Active | fold change (FC) [23]: 3 | inhibition [5]: inactive | fold change (FC) [26]: 3 | inhibition [27]: Active | inhibition [28]: Dose-dependent effect | inhibition [3]: 50% | Activity [29]: Active
SMILES: C[N+](C)(C)CC(O)CN[C@@H]1[C@@H](O)[C@H](O)[C@@H](CO)O[C@H]1O (stereo partly drawn)
inhibition [7]: Active | Activity [9]: 60% | Activity [10]: Dose-dependent effect | Activity [11]: 50% | Activity [12]: Active | Activity [13]: inactive | Activity [14]: Active | inhibition [16]: Active | Activity [17]: inactive | inhibition at 60 µg/mL [18]: 70% | Activity [20]: Dose-dependent effect | Activity [21]: Active | Activity [22]: Non-toxic | Activity [24]: Active | inhibition [25]: 65%
